These results are taken from paper PMC4232042 (Drug Design, Development and Therapy, 2014).

The experiment concerns the target Kv1.5 (Homo sapiens, UniProt P22460). The experiment is described as follows: whole-cell patch clamp in HEK […] cells stably expressing Kv1.[…]. The class given is cell-based. (The patch-clamp technique gives a direct electrical read-out from membranes.)

Kv1.5, sequence (P22460 whole entry): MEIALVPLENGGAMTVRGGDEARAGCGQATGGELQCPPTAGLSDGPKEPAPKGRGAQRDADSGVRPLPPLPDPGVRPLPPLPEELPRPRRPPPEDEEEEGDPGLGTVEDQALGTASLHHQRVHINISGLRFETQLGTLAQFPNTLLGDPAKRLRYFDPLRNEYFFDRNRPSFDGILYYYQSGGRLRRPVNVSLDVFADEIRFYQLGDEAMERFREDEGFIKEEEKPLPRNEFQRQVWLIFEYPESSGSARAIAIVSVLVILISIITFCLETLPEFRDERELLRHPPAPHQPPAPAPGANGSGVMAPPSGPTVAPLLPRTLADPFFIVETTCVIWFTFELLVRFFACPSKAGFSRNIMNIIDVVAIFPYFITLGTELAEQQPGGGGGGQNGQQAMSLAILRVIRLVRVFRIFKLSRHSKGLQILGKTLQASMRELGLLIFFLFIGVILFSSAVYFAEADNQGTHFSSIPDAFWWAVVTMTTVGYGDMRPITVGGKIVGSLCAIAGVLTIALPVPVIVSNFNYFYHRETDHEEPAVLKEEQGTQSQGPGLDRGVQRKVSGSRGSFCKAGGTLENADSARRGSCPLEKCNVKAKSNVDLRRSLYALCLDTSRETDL

As a reminder, the IC50 is the concentration at which inhibition is half-maximal. Read a low IC50 as inhibition by little substance. `Cc1ncc2n1-c1ccc(Cl)cc1C(c1ccccc1F)=NC2` [midazolam]: the IC50 worked out at 17 ± 4.2 µM.
